Legend:
PDIA3 in U87 MG cells = experiment: Cellular distribution of PDIA3 by immunofluorescence; type: cell-based, human; conditions: 5 µM for 48 h and 20 µM for 24 h
Protocol: (§1) Possible changes in the cellular distribution of PDIA3 were previously studied by immunofluorescence assay. Recently, Bilches Medinas et al. reported that a PDIA3 mutation with the loss of functions induced protein aggregation. […] T98G and U87 MG cells were treated with 5 µM and 20 µM of punicalin for 48 h and 24 h, respectively (Figure 8).
(§2) T98G and U-87 MG cells were seeded on coverslips into 6-well plates (200,000 cells/well) and incubated for 24 h and 48 h in the presence of 5 µM and 20 µM punicalagin/punicalin. Cells grown on coverslips were washed with PBS, fixed with 3.7% formaldehyde for 20 min, rinsed with PBS, and then permeabilized with cold methanol (−20 °C) for 5 min. Immunofluorescence analysis was performed according to Paglia et al. using a specific primary antibody against PDIA3 (Millipore, Milan, Italy, cat. ABE1032). Coverslips were mounted on glass microscope slides with DuolinkTM mounting medium and examined using a fluorescence microscope (Leica AF6000 Modular System, Leica, Milan, Italy) with a 63× oil immersion objective. Samples were captured under the same acquisition parameters.

PDIA3 in T98G cells = experiment: as above; type: cell-based, human; conditions: 5 µM for 48 h and 20 µM for 24 h
Protocol: as §1, §2

O=C1OC[C@H]2OC(O)[C@H](O)[C@@H](O)[C@@H]2OC(=O)c2cc(O)c(O)c(O)c2-c2c(O)c(O)c3oc(=O)c4c(c(O)c(O)c5oc(=O)c2c3c54)-c2c1cc(O)c(O)c2O (mixture of isomers) [Punicalin, punicalin]
change in cellular distribution of PDIA3 (PDIA3 in U87 MG cells): marked change in the fluorescence pattern and a cellular redistribution of PDIA3 | change in cellular distribution of PDIA3 (PDIA3 in T98G cells): marked change in the fluorescence pattern and a cellular redistribution of PDIA3

From article PMC11476419, “Analysis of Punicalin and Punicalagin Interaction with PDIA3 and PDIA1” (International Journal of Molecular Sciences, 2024)
